Tests used:
human 5-HT1A receptor = human 5-HT1A receptor (Homo sapiens (Human), UniProt P08908); test: Inhibition of [3H]-8-OH-DPAT binding in membranes from CHO-h5-HT1A cells; conditions: 5 nM [3H]-8-OH-DPAT, read-out: Binding affinity value (Ki)
Experimental: In Vitro Agonist Binding Assay.
Preparation of Membrane Fractions from CHO-h5-HT1A Cells. Membranes from CHO cells stably expressing the human 5-HT1A receptor at a density of 8 pmol/mg membrane protein with 5-HT2c receptor background were prepared. Cells were grown in DMEM/F-12 medium supplemented with 5% fatal bovine serum, 50 ig/mL geneticin, and 50 ig/mL hygromycin B in a humidified atmosphere of 5% CO2 until they reached confluence. Cells were harvested by centrifugation (800 g for 5 min) and homogenized using a polytron homogenizer (Polytron, CH-6010 Kreiens-Lu, Brinkman Instrument, Westbury, N.Y.) in buffer containing 20 mM HEPES, pH7.4, 3 mM MgCl2, and a cocktail of protease inhibitors (Sigma-Aldrich, St. Louis, Mo.) at 1:2000 dilution. The homogenate was centrifuged (Beckman Optima LE80K Ultracentrifuge) at 100 000 g for 15 min at 4° C. The pellet was suspended in the same buffer and recentrifuged. The final pellet was suspended in assay buffer containing 20 mM HEPES, pH 7.4, 3 mM MgCl2, 100 mM NaCl, and a mixture of protease inhibitors and stored at −70° C. Protein concentration was determined by detergent compatible colorimetric assay using DC Protein Assay Reagents as recommended by the manufacturer (Bio-Rad, Hercules, Calif.).
Inhibition of [^3H]-8-OH-DPAT Binding by A-D or 5-HT in Membranes. For inhibition experiments, the incubation medium consisted of 20 mM HEPES, pH 7.4, 4 mM CaCl2, 5 nM [^3H]-8-OH-DPAT, and 30 μg of membrane protein in the presence of different concentrations of […] or 5-HT. The assay mixture was incubated for 10 min at 30° C. The reaction was terminated by rapid filtration through Whatman GF/B filters followed by three washes with ice cold 20 mM HEPES buffer, pH 7.4, using a cell harvester (Brandel, M-24R Gaitherburg, Md.). Bound radioactivity was determined by liquid scintillation spectrometry (Beckman).

5-HT1A = 5-HT1A (Rattus norvegicus (Rat), UniProt P19327); test: Ex vivo saturation binding of Compound E in rat brain regions; conditions: hippocampus and frontal cortex, rats 90 min after i.v. injection, one binding-site model
Experimental: Ex vivo studies of compound E: Awake rats were injected in the tail vein with Compound E shown below:
Total mass injected was between 0.02 nmol/kg and 500 nmol/kg. All rats were decapitated after 90 minutes, based on time activity experiments with Compound E. The brains were extracted and brain regions were dissected, and then dissolved in Solvable (Packard). Blood was collected, and the plasma was separated. Radioactivity concentrations were determined by scintillation counting.
It was possible to saturate the 5-HT1A binding of Compound E in the frontal cortex and hippocampus. Data were best fitted with a one binding-site model. […] The cerebellum and plasma were unsaturable and no binding model could be fitted to the data.

5-HT1AR = 5-HT1AR (Rattus norvegicus (Rat), UniProt P19327); test: Endogenous changes of 5-HT measured with Compound E uptake and binding in pretreated rats; assay type: in vivo; conditions: for SBR (specific binding ratio) of Compound E, change versus saline / SUV of Compound E, change versus saline: hippocampus, 90 min after Compound E i.v., pretreated rats
Experimental: Endogenous changes of 5-HT measurement with Compound E: Rats were pretreated according to the group below, injected with 0.1 MBq (0.18±0.02 nmol/kg, i.v.) of Compound E, then killed by decapitation after 90 minutes. Blood was collected from the trunk, the brain was extracted and the striatum, hippocampus, frontal cortex and cerebellum were dissected. Brain regions were dissolved, plasma was separated from the blood and radioactivity concentrations were determined.
The uptake and binding of Compound E after injection differed by treatment condition. […] Changes in the specific binding ratio (SBR=(activity in ROI−activity in Cerebellum)/activity in Cerebellum) were significant in Fenfluramine 1 and 2.

Sequence of 5-HT1AR (P19327 whole entry): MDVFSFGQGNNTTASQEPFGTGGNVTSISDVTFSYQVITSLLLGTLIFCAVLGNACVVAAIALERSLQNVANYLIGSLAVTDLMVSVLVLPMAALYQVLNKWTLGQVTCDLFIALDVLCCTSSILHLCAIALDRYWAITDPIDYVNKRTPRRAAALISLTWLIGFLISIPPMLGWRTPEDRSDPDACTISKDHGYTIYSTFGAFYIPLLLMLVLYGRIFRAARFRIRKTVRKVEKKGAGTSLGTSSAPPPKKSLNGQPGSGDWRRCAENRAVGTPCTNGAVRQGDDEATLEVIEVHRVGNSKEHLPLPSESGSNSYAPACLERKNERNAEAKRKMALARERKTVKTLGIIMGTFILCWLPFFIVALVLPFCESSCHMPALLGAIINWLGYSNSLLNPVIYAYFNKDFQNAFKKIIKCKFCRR
Sequence of human 5-HT1A receptor (P08908 whole entry): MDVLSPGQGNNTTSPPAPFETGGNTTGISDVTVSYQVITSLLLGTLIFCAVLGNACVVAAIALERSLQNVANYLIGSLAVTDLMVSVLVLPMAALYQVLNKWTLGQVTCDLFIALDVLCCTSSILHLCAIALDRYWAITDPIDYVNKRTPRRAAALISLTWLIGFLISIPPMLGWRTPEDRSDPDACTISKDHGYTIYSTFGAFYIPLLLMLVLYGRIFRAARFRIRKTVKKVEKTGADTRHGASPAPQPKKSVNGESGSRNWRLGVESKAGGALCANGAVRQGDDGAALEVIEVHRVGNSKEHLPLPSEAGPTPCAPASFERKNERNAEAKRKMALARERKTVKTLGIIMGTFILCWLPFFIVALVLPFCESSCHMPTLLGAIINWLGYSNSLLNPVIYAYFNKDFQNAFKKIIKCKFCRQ
Sequence of 5-HT1A (P19327 whole entry): as the sequence (P19327 whole entry) above

Row | Compound | Ki (human 5-HT1A receptor) [nM] | SBR (specific binding ratio) of Compound E, change versus saline (5-HT1AR) | SUV of Compound E, change versus saline (5-HT1AR) | Change in uptake of Compound E by treatment condition (5-HT1AR; in words) | further results
1 | Cn1c(=O)cnn(CCCCN2CCN(c3cccc(I)n3)CC2)c1=O | 5.5 |  |  |  | 
2 | [3H]COc1ccccc1N1CCN(CCCCn2ncc(=O)n(C)c2=O)CC1 [Compound E] |  |  |  |  | Kd (5-HT1A): 17 to 18 nM
3 | CN(C)CCCC1(c2ccc(F)cc2)OCc2cc(C#N)ccc21 (centres unmarked) [Citalopram] |  | −12.2% | +4.8% |  | 
4 | NC(Cc1ccc(Cl)cc1)C(=O)O (centres unmarked) [Single Housed + pCPA, pCPA] |  | −15.1% | −14.1% | Significant changes in uptake | 
5 | Cn1c(=O)cnn(CCCCN2CCN(c3ccccc3Br)CC2)c1=O | 6 |  |  |  | 
6 | [3H]COc1ccccc1N1CCN(CCCCn2ncc(=O)n(C)c2=O)CC1 [drawing 34] | 0.15 |  |  |  | 
7 | Isoflurane [Isoflurane, 1-3% (Inhaled) + Saline] |  | −4.6% | +52.1% | Significant changes in uptake | 
8 | CCNC(C)Cc1cccc(C(F)(F)F)c1 (centres unmarked) [Fenfluramine] |  | +32.8% | −0.1% | Significant changes in uptake | Change in specific binding ratio of Compound E by treatment condition (5-HT1AR; in words): significant
9 | Cn1c(=O)cnn(CCCCN2CCN(c3cccc(Br)n3)CC2)c1=O | 4 |  |  |  | 
